Laboratory results as given in ChEMBL document CHEMBL4052697, “Chimeric analogs of human β-defensin 1 and θ-defensin disrupt pre-established bacterial biofilms” (2017).
Values after ≈ are worked out from the molar mass of the structure shown. Active and inactive are the calls of the source. The calls are words filed in the database; no cut-off is given here. Non-standard residues stand in square brackets, D forms with d. Residues, ends and D or L forms follow the SMILES beside them. NMeA = CN[C@@H](C)C(=O)O

Assays:
Type in all cases: functional
[1] = tested on: Staphylococcus aureus; experiment: Antibiofilm activity against pre-established 36 hrs old bacterial biofilms of Staphylococcus aureus NCTC 8530 incubated for 4 hrs by XTT assay
[2] = tested on: Escherichia coli; experiment: Antibiofilm activity against pre-established 36 hrs old bacterial biofilms of Escherichia coli MG1655 incubated for 4 hrs by XTT assay
[3] = tested on: Escherichia coli; experiment: Bactericidal activity against Escherichia coli MG1655 planktonic forms
[4] = tested on: Staphylococcus aureus; experiment: Bactericidal activity against Staphylococcus aureus NCTC 8530 planktonic forms

Row | SMILES | MBEC [1] | MBEC [2] | MBC [3] [µM] | MBC [4] [µM]
1 | CC[C@H](C)[C@H](NC(=O)CNC(=O)[C@H](CCCNC(=N)N)NC(=O)[C@@H](NC(=O)[C@@H](NC(=O)[C@@H](NC(=O)CNC(=O)[C@H](Cc1ccc(O)cc1)NC(=O)[C@H](CCCNC(=N)N)NC(=O)[C@H](Cc1ccc(O)cc1)NC(=O)[C@H](CCC(=O)O)NC(=O)[C@@H](NC(=O)[C@H](CO)NC(=O)[C@H](Cc1ccc(O)cc1)NC(=O)[C@H](CO)NC(=O)[C@H](CCCNC(=N)N)NC(=O)[C@H](CCCNC(=N)N)NC(=O)[C@H](Cc1cnc[nH]1)NC(=O)[C@@H](NC(=O)[C@H](Cc1ccccc1)NC(=O)[C@H](C)NC)[C@@H](C)O)[C@@H](C)O)[C@@H](C)O)[C@@H](C)O)C(C)C)C(=O)N[C@@H](CCCNC(=N)N)C(=O)N[C@@H](Cc1cnc[nH]1)C(=O)N[C@@H](CCCNC(=N)N)C(=O)N[C@@H](Cc1ccccc1)C(=O)N[C@@H](CC(C)C)C(=O)O (H-[NMeA]FTHRRSYSTEYRYGTTVRGIRHRFL-OH) | inactive | inactive | 10 (≈ 32.5 µg/mL) | 10 (≈ 32.5 µg/mL)
2 | CCCCCCCCCCCCCC(=O)N[C@@H](CCC(=O)O)C(=O)N[C@@H](CC(C)C)C(=O)N[C@@H](CC(=O)O)C(=O)N[C@H](CCCNC(=N)N)C(=O)N[C@H](C(=O)NCC(=O)N[C@@H](Cc1ccc(O)cc1)C(=O)NCC(=O)N[C@H](C(=O)N[C@@H](C)C(=O)N[C@H](CCCNC(=N)N)C(=O)N[C@H](CCCNC(=N)N)C(=O)N[C@@H](CCCCN)C(=O)N[C@@H](CCCCN)C(=O)N[C@@H](CCCNC(=N)N)C(=O)O)[C@@H](C)O)[C@@H](C)CC | inactive | inactive | 5 (≈ 10.1 µg/mL) | 10 (≈ 20.3 µg/mL)
3 | CCCCCCCCCCCC(=O)N[C@@H](C)C(=O)N[C@H](C(=O)N[C@@H](Cc1ccc(O)cc1)C(=O)N[C@@H](CCCNC(=N)N)C(=O)N[C@H](C(=O)NCC(=O)N[C@@H](CCCNC(=N)N)C(=O)N[C@@H](C)C(=O)N[C@H](C(=O)N[C@@H](CCCNC(=N)N)C(=O)N[C@@H](CCC(=O)O)C(=O)N[C@@H](CO)C(=O)N[C@@H](CC(C)C)C(=O)N[C@@H](CO)C(=O)NCC(=O)N[C@H](C(=O)N[C@@H](CCC(=O)O)C(=O)N[C@H](C(=O)N[C@@H](CO)C(=O)NCC(=O)N[C@@H](CCCNC(=N)N)C(=O)N[C@@H](CC(C)C)C(=O)N[C@@H](Cc1ccc(O)cc1)C(=O)N[C@@H](CCCNC(=N)N)C(=O)N[C@@H](CC(C)C)C(=O)N[C@@H](CCCNC(=N)N)C(=O)O)[C@@H](C)CC)C(C)C)[C@@H](C)O)[C@@H](C)O)[C@@H](C)O | inactive | inactive | 20 (≈ 63 µg/mL) | 2 (≈ 6.3 µg/mL)
4 | CCCCCCCCCCCCCC(=O)N[C@@H](C)C(=O)N[C@H](C(=O)N[C@@H](Cc1ccc(O)cc1)C(=O)N[C@@H](CCCNC(=N)N)C(=O)N[C@H](C(=O)NCC(=O)N[C@@H](CCCNC(=N)N)C(=O)N[C@@H](C)C(=O)N[C@H](C(=O)N[C@@H](CCCNC(=N)N)C(=O)N[C@@H](CCC(=O)O)C(=O)N[C@@H](CO)C(=O)N[C@@H](CC(C)C)C(=O)N[C@@H](CO)C(=O)NCC(=O)N[C@H](C(=O)N[C@@H](CCC(=O)O)C(=O)N[C@H](C(=O)N[C@@H](CO)C(=O)NCC(=O)N[C@@H](CCCNC(=N)N)C(=O)N[C@@H](CC(C)C)C(=O)N[C@@H](Cc1ccc(O)cc1)C(=O)N[C@@H](CCCNC(=N)N)C(=O)N[C@@H](CC(C)C)C(=O)N[C@@H](CCCNC(=N)N)C(=O)O)[C@@H](C)CC)C(C)C)[C@@H](C)O)[C@@H](C)O)[C@@H](C)O | inactive | inactive | 5 (≈ 15.9 µg/mL) | 7.5 (≈ 23.8 µg/mL)
5 | CCCCCCCCCCCCCC(=O)N[C@@H](C)C(=O)N[C@@H](Cc1ccccc1)C(=O)N[C@H](C(=O)N[C@H](CCCNC(=N)N)C(=O)N[C@H](CCCNC(=N)N)C(=O)N[C@H](CCCNC(=N)N)C(=O)N[C@@H](CO)C(=O)N[C@@H](Cc1ccc(O)cc1)C(=O)N[C@@H](CO)C(=O)N[C@H](C(=O)N[C@@H](CCC(=O)O)C(=O)N[C@@H](Cc1ccc(O)cc1)C(=O)N[C@@H](CO)C(=O)N[C@@H](Cc1ccc(O)cc1)C(=O)NCC(=O)N[C@H](C(=O)N[C@H](C(=O)N[C@H](C(N)=O)C(C)C)[C@@H](C)O)[C@@H](C)O)[C@@H](C)O)[C@@H](C)O | inactive | inactive | 20 (≈ 47.1 µg/mL) | 50 (≈ 118 µg/mL)
6 | CCCCCCCCCCCCCC(=O)N[C@@H](C)C(=O)N[C@@H](Cc1ccccc1)C(=O)N[C@H](C(=O)N[C@@H](CCCNC(=N)N)C(=O)N[C@@H](CCCNC(=N)N)C(=O)N[C@@H](CCCNC(=N)N)C(=O)N[C@@H](CO)C(=O)N[C@@H](Cc1ccc(O)cc1)C(=O)N[C@@H](CO)C(=O)N[C@H](C(=O)N[C@@H](CCC(=O)O)C(=O)N[C@@H](Cc1ccc(O)cc1)C(=O)N[C@@H](CO)C(=O)N[C@@H](Cc1ccc(O)cc1)C(=O)NCC(=O)N[C@H](C(=O)N[C@H](C(=O)N[C@H](C(N)=O)C(C)C)[C@@H](C)O)[C@@H](C)O)[C@@H](C)O)[C@@H](C)O | inactive | inactive | 10 (≈ 23.5 µg/mL) | 20 (≈ 47.1 µg/mL)
7 | CCCCCCCCCCCCCC(=O)N[C@@H](CCC(=O)O)C(=O)N[C@@H](CC(C)C)C(=O)N[C@@H](CC(=O)O)C(=O)N[C@@H](CCCNC(=N)N)C(=O)N[C@H](C(=O)NCC(=O)N[C@@H](Cc1ccc(O)cc1)C(=O)NCC(=O)N[C@H](C(=O)N[C@@H](C)C(=O)N[C@@H](CCCNC(=N)N)C(=O)N[C@@H](CCCNC(=N)N)C(=O)N[C@H](CCCCN)C(=O)N[C@H](CCCCN)C(=O)N[C@@H](CCCNC(=N)N)C(=O)O)[C@@H](C)O)[C@@H](C)CC | inactive | inactive | 5 (≈ 10.1 µg/mL) | 10 (≈ 20.3 µg/mL)
8 | CCCCCCCCCCCCCC(=O)N[C@@H](C)C(=O)N[C@H](C(=O)N[C@@H](Cc1ccc(O)cc1)C(=O)N[C@H](CCCNC(=N)N)C(=O)N[C@H](C(=O)NCC(=O)N[C@H](CCCNC(=N)N)C(=O)N[C@@H](C)C(=O)N[C@H](C(=O)N[C@H](CCCNC(=N)N)C(=O)N[C@@H](CCC(=O)O)C(=O)N[C@@H](CO)C(=O)N[C@@H](CC(C)C)C(=O)N[C@@H](CO)C(=O)NCC(=O)N[C@H](C(=O)N[C@@H](CCC(=O)O)C(=O)N[C@H](C(=O)N[C@@H](CO)C(=O)NCC(=O)N[C@H](CCCNC(=N)N)C(=O)N[C@@H](CC(C)C)C(=O)N[C@@H](Cc1ccc(O)cc1)C(=O)N[C@H](CCCNC(=N)N)C(=O)N[C@@H](CC(C)C)C(=O)N[C@@H](CCCNC(=N)N)C(=O)O)[C@@H](C)CC)C(C)C)[C@@H](C)O)[C@@H](C)O)[C@@H](C)O | inactive | inactive | 5 (≈ 15.9 µg/mL) | 7.5 (≈ 23.8 µg/mL)
9 | CCCCCCCCCCCC(=O)N[C@@H](C)C(=O)N[C@H](C(=O)N[C@@H](Cc1ccc(O)cc1)C(=O)N[C@H](CCCNC(=N)N)C(=O)N[C@H](C(=O)NCC(=O)N[C@H](CCCNC(=N)N)C(=O)N[C@@H](C)C(=O)N[C@H](C(=O)N[C@H](CCCNC(=N)N)C(=O)N[C@@H](CCC(=O)O)C(=O)N[C@@H](CO)C(=O)N[C@@H](CC(C)C)C(=O)N[C@@H](CO)C(=O)NCC(=O)N[C@H](C(=O)N[C@@H](CCC(=O)O)C(=O)N[C@H](C(=O)N[C@@H](CO)C(=O)NCC(=O)N[C@H](CCCNC(=N)N)C(=O)N[C@@H](CC(C)C)C(=O)N[C@@H](Cc1ccc(O)cc1)C(=O)N[C@H](CCCNC(=N)N)C(=O)N[C@@H](CC(C)C)C(=O)N[C@@H](CCCNC(=N)N)C(=O)O)[C@@H](C)CC)C(C)C)[C@@H](C)O)[C@@H](C)O)[C@@H](C)O | inactive | inactive | 10 (≈ 31.5 µg/mL) | 20 (≈ 63 µg/mL)
10 | CC[C@H](C)[C@H](NC(=O)[C@H](CCC(=O)O)NC(=O)[C@@H](NC(=O)CNC(=O)[C@H](CO)NC(=O)[C@H](CC(C)C)NC(=O)[C@H](CO)NC(=O)[C@H](CCC(=O)O)NC(=O)[C@@H](CCCNC(=N)N)NC(=O)[C@@H](NC(=O)[C@H](C)NC(=O)[C@@H](CCCNC(=N)N)NC(=O)CNC(=O)[C@@H](NC(=O)[C@@H](CCCNC(=N)N)NC(=O)[C@H](Cc1ccc(O)cc1)NC(=O)[C@@H](NC(=O)[C@H](C)N)[C@@H](C)O)[C@@H](C)O)[C@@H](C)O)C(C)C)C(=O)N[C@@H](CO)C(=O)NCC(=O)N[C@H](CCCNC(=N)N)C(=O)N[C@@H](CC(C)C)C(=O)N[C@@H](Cc1ccc(O)cc1)C(=O)N[C@H](CCCNC(=N)N)C(=O)N[C@@H](CC(C)C)C(=O)N[C@@H](CCCNC(=N)N)C(=O)O | inactive | inactive | 50 (≈ 148 µg/mL) | > 100
11 | CC[C@H](C)[C@H](NC(=O)[C@H](CCC(=O)O)NC(=O)[C@@H](NC(=O)CNC(=O)[C@H](CO)NC(=O)[C@H](CC(C)C)NC(=O)[C@H](CO)NC(=O)[C@H](CCC(=O)O)NC(=O)[C@H](CCCNC(=N)N)NC(=O)[C@@H](NC(=O)[C@H](C)NC(=O)[C@H](CCCNC(=N)N)NC(=O)CNC(=O)[C@@H](NC(=O)[C@H](CCCNC(=N)N)NC(=O)[C@H](Cc1ccc(O)cc1)NC(=O)[C@@H](NC(=O)[C@H](C)N)[C@@H](C)O)[C@@H](C)O)[C@@H](C)O)C(C)C)C(=O)N[C@@H](CO)C(=O)NCC(=O)N[C@@H](CCCNC(=N)N)C(=O)N[C@@H](CC(C)C)C(=O)N[C@@H](Cc1ccc(O)cc1)C(=O)N[C@@H](CCCNC(=N)N)C(=O)N[C@@H](CC(C)C)C(=O)N[C@@H](CCCNC(=N)N)C(=O)O | inactive | inactive | 50 (≈ 148 µg/mL) | > 100
12 | CC[C@H](C)[C@H](NC(=O)[C@H](CCCNC(=N)N)NC(=O)[C@H](CC(=O)O)NC(=O)[C@H](CC(C)C)NC(=O)[C@@H](N)CCC(=O)O)C(=O)NCC(=O)N[C@@H](Cc1ccc(O)cc1)C(=O)NCC(=O)N[C@H](C(=O)N[C@@H](C)C(=O)N[C@@H](CCCNC(=N)N)C(=O)N[C@@H](CCCNC(=N)N)C(=O)N[C@H](CCCCN)C(=O)N[C@H](CCCCN)C(=O)N[C@@H](CCCNC(=N)N)C(=O)O)[C@@H](C)O | inactive | inactive | 20 (≈ 36.4 µg/mL) | 60 (≈ 109 µg/mL)
